# Calls of active or inactive are those of the source. The rule behind the calls is not given here. Numbered stars: 1 amine (or outer) side, 2 acyl side, 3 side chain; on linkers, the order of the positions; unused ones are H or OH. Square brackets hold non-standard residues; d marks the D form. Peptide text beside a SMILES is read from it. ξ: configuration not given here. ξβ3hGly(undecyl) = CCCCCCCCCCCC(CC(=O)[*:2])N[*:1]
# Target: Ubiquitin carboxyl-terminal hydrolase isozyme L1 (Homo sapiens) (UniProt P09936)
# Assay: UCH-L1 deubiquitylase inhibitors, biochemical concentration-response, hit retest (AID 1645867)
# Settings: recombinant UCHL1 deubiquitinase activity assay
# Sequence of Ubiquitin carboxyl-terminal hydrolase isozyme L1 (Homo sapiens) (P09936 whole entry, looked up): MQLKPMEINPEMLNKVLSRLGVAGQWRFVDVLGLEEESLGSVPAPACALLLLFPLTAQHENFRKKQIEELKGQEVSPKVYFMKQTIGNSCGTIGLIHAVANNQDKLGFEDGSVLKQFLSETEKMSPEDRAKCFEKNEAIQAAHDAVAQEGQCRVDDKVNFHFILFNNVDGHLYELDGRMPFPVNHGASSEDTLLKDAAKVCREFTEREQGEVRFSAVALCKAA
row,SMILES,IC50
1,O=C(CS(=O)(=O)c1ccc(F)cc1)Nc1ccc(-c2nc3ccccc3s2)c(O)c1,> 25 µM (inactive)
2,O=C(c1ccc(Cl)cc1)N(c1ccccn1)C1CCCCC1,> 25 µM (inactive)
3,COc1ccccc1N/C=C/c1onc(-c2c(F)cccc2Cl)c1C#N,> 25 µM (inactive)
4,Cc1ccc(C(=O)c2cn(CC(=O)Nc3ccc4c(c3)OCO4)c3ccccc3c2=O)cc1,> 25 µM (inactive)
5,CCc1ccc(NC(=O)Cc2nnc3cc(-c4nc(C)no4)ccn23)cc1,> 25 µM (inactive)
6,CCOc1ccc2c(c1)c(=O)c(C(=O)c1ccc(C)cc1)cn2CC(=O)Nc1ccc(C)cc1,> 25 µM (inactive)
7,CSc1cccc(NC(=O)C2C3C=CC4(O3)C2C(=O)N(C2CCCCCC2)C4C(=O)NC2CCCCC2)c1 (stereo not given),> 25 µM (inactive)
8,O=C(COc1ccc(Cl)cc1Cl)Nc1ccccc1-c1nc2ccccc2[nH]1,> 25 µM (inactive)
9,CC(=O)NS(=O)(=O)c1ccc(NC(=O)/C=C/c2cn(-c3ccccc3)nc2-c2ccccc2)cc1,> 25 µM (inactive)
10,COC(=O)C1(Cc2ccc(O)cc2)OC(=O)C(O)=C1c1ccc(O)cc1 (stereo not given),18.9 µM
11,CCCCCC(O)c1c(O)cc2c(c1O)C(=O)c1c(O)cc(O)cc1C2=O (stereo not given),> 25 µM (inactive)
12,O=C(COc1ccc(Cl)cc1)Nc1noc(-c2cccs2)n1,> 25 µM (inactive)
13,CCOc1ccc2c(c1)c(=O)c(C(=O)c1ccccc1)cn2CC(=O)Nc1ccc(OC)cc1,> 25 µM (inactive)
14,Cc1ccc(C(=O)N[C@@H](Cc2ccccc2)C(=O)N2CCC3(CC2)NCCc2[nH]cnc23)cc1C,> 25 µM (inactive)
15,COc1c(C(=O)Nc2nnc(C3CC3)s2)csc1Cl,> 25 µM (inactive)
16,O=C(NC1CC2(CCOCC2)Oc2ccccc21)c1cnccn1 (stereo not given),> 25 µM (inactive)
17,O=C(C1CCCCC1)N1CCN(c2nc3c(F)cccc3s2)CC1,> 25 µM (inactive)
18,CCCCCCCCCCCC1CC(=O)NC(CC(N)=O)C(=O)NC(Cc2ccc(O)cc2)C(=O)NC(CC(N)=O)C(=O)NC(CCC(N)=O)C(=O)N2CCCC2C(=O)NC(CC(N)=O)C(=O)NC(CO)C(=O)N1 (stereo not drawn) (cyclo([ξβ3hGly(undecyl)]NYNQPNS); configuration not given here),> 25 µM (inactive)
19,O=C(NC1(O)C(=O)c2ccccc2C1=O)c1cccc2c1-c1ccccc1C2=O,15.6 µM
20,COc1ccc(OC)c(C2=NO[C@]3(C(=O)Nc4ccccc43)[C@H]2C(=O)c2ccc(OC)c(OC)c2)c1,> 25 µM (inactive)
21,Cc1ccc(S(=O)(=O)NCc2ccc(C(=O)NCCc3ccc(S(N)(=O)=O)cc3)cc2)cc1,> 25 µM (inactive)
22,COc1ccc(Nc2nnc(Cc3ccc(Cl)cc3)c(=O)[nH]2)cc1,> 25 µM (inactive)
23,CC(c1ccccc1)N1CC(O)=C(c2nc3ccccc3s2)C1=N (stereo not given),> 25 µM (inactive)

row,SMILES,IC50
1,CCC(C)Nc1ncnc2c1CN(C1CCCNCC1)C(=O)CN2C (stereo not given),> 25 µM (inactive)
2,CCOc1ccccc1C1CC(=O)Nc2ccc3ccccc3c21 (stereo not given),> 25 µM (inactive)
3,COc1ccc(Cl)cc1NC(=O)c1cc(-c2ccccn2)n[nH]1,> 25 µM (inactive)
4,O=c1c2cc(Br)ccc2[nH]c(=S)n1Cc1cccnc1,> 25 µM (inactive)
5,COc1ccc(CNC(=O)c2ccc3c(=O)nc4c(-c5cccc(C)c5)n[nH]n4c3c2)cc1,> 25 µM (inactive)
6,O=C(Cn1c(=O)n(Cc2ccccc2)c(=O)c2ncccc21)NCc1ccccc1Cl,> 25 µM (inactive)
7,O=C(NC1CC1)c1ccc(OCC2CCCN(C(=O)c3ccccc3)C2)cc1 (stereo not given),> 25 µM (inactive)
8,COc1ccccc1OCCSc1nnc(-c2ccc3c(c2)OCCCO3)n1C,> 25 µM (inactive)
9,Cc1ccc(C2CC(=O)C3=C(C2)Nc2ccccc2N(C(=O)c2ccccc2)C3c2ccccc2)cc1 (stereo not given),> 25 µM (inactive)
10,COc1cc(O)cc2c1C(=O)OC(C)CCCCCCC2 (stereo not given),> 25 µM (inactive)
11,COc1ccc(NC(=O)Cn2c(=O)n(-c3ccc(CC(=O)NCc4ccco4)cc3)c(=O)c3ccccc32)cc1Cl,> 25 µM (inactive)
12,CC1OC2CC(=O)OC2C2=C1C(=O)c1c(O)cccc1C2=O (stereo not given),> 25 µM (inactive)
13,Cc1ccc(N2CC(c3nc4ccccc4n3CCOc3cccc(C)c3)CC2=O)cc1 (stereo not given),> 25 µM (inactive)
14,Cc1ccc(Cn2c(C(=O)O)c(CNCc3cccnc3)c3ccccc32)cc1,> 25 µM (inactive)
15,CCOC(=O)c1ccc(Oc2sccc2[N+](=O)[O-])cc1,> 25 µM (inactive)
16,Cc1nn(-c2ccc(F)cc2)c(C)c1S(=O)(=O)N1CCN(c2ccccn2)CC1,> 25 µM (inactive)
17,Cc1c(Cl)cccc1NC(=O)Cn1cc(C(=O)C2CC2)c2ccccc21,> 25 µM (inactive)
18,Cc1ccc(-n2ccn3c(CCC(=O)NCc4ccc(F)cc4)nnc3c2=O)cc1C,> 25 µM (inactive)
19,Cc1ccccc1NC(=O)Nc1ccccc1OCc1cc(=O)n2cccc(C)c2n1,> 25 µM (inactive)
20,O=C(Cn1nc2c3c4c(sc3ncn2c1=O)CCCCC4)Nc1ccc(Cl)cc1F,> 25 µM (inactive)
21,COC(=O)c1ccc2c(=O)n(CCCCCC(=O)NCCc3ccc(S(N)(=O)=O)cc3)c(=O)[nH]c2c1,> 25 µM (inactive)
22,Nc1c(-c2nc(-c3ccccc3Cl)no2)nnn1-c1ccc(Cl)cc1,> 25 µM (inactive)
23,O=C(COC(=O)c1cnccn1)Nc1ccc(Cl)cc1C(=O)c1ccccc1,> 25 µM (inactive)

row,SMILES,IC50
1,COc1c2nc3ccccc3oc-2cc(=O)c1OC,> 25 µM (inactive)
2,Cc1ccc2[nH]c3c(=O)n(Cc4ccc(N(C)C)cc4)cnc3c2c1,> 25 µM (inactive)
3,O=C(NCc1ccc(Br)cc1)c1cc(-c2cccnc2)n[nH]1,> 25 µM (inactive)
4,CC(C)(C)n1ncc2c(=O)n(CC(=O)N3CCCc4ccccc43)cnc21,> 25 µM (inactive)
5,CCOc1ccc(NS(=O)(=O)c2ccc(NC(=O)Nc3ccccc3)cc2)cc1,> 25 µM (inactive)
6,CCC(Sc1cccc(NC(=O)C2CCCCC2)c1)C(=O)Nc1cc([N+](=O)[O-])ccc1C (stereo not given),> 25 µM (inactive)
7,O=c1cc(Cc2ccccc2)nc2c(-c3ccccc3)c(COc3ccccc3)[nH]n12,> 25 µM (inactive)
8,N#C/C(=C\c1ccc(OCc2cccc(C(=O)O)c2)cc1)c1ccc(F)cc1,> 25 µM (inactive)
9,O=C(CSc1nc2cc(C(F)(F)F)ccc2s1)NCC(=O)c1ccccc1,> 25 µM (inactive)
10,COc1ccc(NC(=O)[C@H](C)NC(=O)c2cc3c(OC)cccc3[nH]2)cc1Cl,> 25 µM (inactive)
11,COc1cc(NC(=O)c2ccc3c(c2)OCO3)ccc1-c1cc2ccccc2oc1=O,> 25 µM (inactive)
12,COc1ccc(NC(=O)Cn2cc(C(=O)c3ccc(Cl)cc3)c(=O)c3cc(F)ccc32)cc1,> 25 µM (inactive)
13,Cc1cccc(NC(=O)N2C[C@@H]3c4nccn4-c4ccccc4[C@@H]3C2)c1,> 25 µM (inactive)
14,Cc1ccc(C)c(Cn2cnc3c(nnn3-c3cccc(F)c3)c2=O)c1,> 25 µM (inactive)
15,Cc1cccc(NC(=O)Cn2cccc(S(=O)(=O)N3CCC(C)CC3)c2=O)c1C,> 25 µM (inactive)
16,CC(C)=CCC(O)C1=CC(=O)c2c(O)ccc(O)c2C1=O (stereo not given),3.09 µM
17,O=C(OCC(=O)N1CCOCC1)c1ccccc1OCc1ccccc1Cl,> 25 µM (inactive)
18,CC(OC(=O)c1cccc(N(C)C)c1)C(=O)Nc1ncc(Cl)cc1Cl (stereo not given),> 25 µM (inactive)
19,O=c1[nH]c(=O)n(Cc2ccccc2)c2c1CN(CCc1ccccc1)CN2,> 25 µM (inactive)
20,Fc1ccc(NCc2nc3ccccc3n2Cc2ccccc2)cc1,> 25 µM (inactive)
21,CC1(C)Cc2nc(N3CCCC3)c(C#N)cc2CS1,> 25 µM (inactive)
22,COc1ccc(-c2noc(CN3CCCC3c3cnn(C)c3)n2)cc1 (stereo not given),> 25 µM (inactive)
23,C/C=C/C=C/[C@@H]1Cc2cc(O)cc(O)c2O1,10.9 µM

row,SMILES,IC50
1,O=c1[nH]cccc1NS(=O)(=O)c1ccc(F)cc1,> 25 µM (inactive)
2,O=C1NC2(CCCc3ccccc32)C(=O)N1Cc1csc(-c2ccccc2)n1 (stereo not given),> 25 µM (inactive)
3,CCOc1ccc(-c2ccc3nnc(SCC(=O)Nc4ccc(F)cc4)n3n2)cc1,> 25 µM (inactive)
4,N#Cc1cccc(C(=O)Nc2cccc(Oc3ccccc3)c2)c1,> 25 µM (inactive)
5,COc1ccc(CCN2COc3c(cc(Cl)c4cccnc34)C2)cc1OC,> 25 µM (inactive)
6,CCN1C(=O)c2ccccc2C(=O)[C@@]2(C)CN(C(=O)c3ccccc3)C[C@@H]12,> 25 µM (inactive)
7,O=C(COc1ccc(N2CC(C(=O)NCc3ccc4c(c3)OCO4)CC2=O)cc1)Nc1ccc(Cl)cc1 (stereo not given),> 25 µM (inactive)
8,Cn1c2ccccc2c(=O)c2c(=O)n(-c3cccc(Cl)c3)c(-c3cccs3)nc21,> 25 µM (inactive)
9,CCN(CC)Cc1ccc(-c2nnc(-c3cnc4onc(C)c4c3)o2)o1,> 25 µM (inactive)
10,Cc1ccc(CNC(=O)Cn2c(=O)n(CCCC(=O)NCc3ccc(F)cc3)c(=O)c3ccccc32)cc1,> 25 µM (inactive)
11,CC1=C(C)C(c2c(-c3ccc(C)cc3)[nH]c3ccccc23)N(C(C)(C)C)C1=O (stereo not given),> 25 µM (inactive)
12,Cc1cc(C)cc(NC(=O)C2C3C=CC4(O3)C2C(=O)N(C2CCCCC2)C4C(=O)NC2CCCCC2)c1 (stereo not given),> 25 µM (inactive)
13,O=C(Nc1nc2ccccc2s1)C1CC(=O)N(c2ccccc2)C1 (stereo not given),> 25 µM (inactive)
14,O=C(NCc1ccco1)c1cccc(S(=O)(=O)N2CC(c3ccccc3)CC2=O)c1 (stereo not given),> 25 µM (inactive)
15,CCOc1ccc(NC(=O)Cn2c(=O)n(CCCCCC(=O)NCc3ccc(F)cc3)c(=O)c3sccc32)cc1,> 25 µM (inactive)
16,O=C1CSC(c2ccc(F)cc2)c2c(n(C3CCCCCC3)[nH]c2=O)N1 (stereo not given),> 25 µM (inactive)
17,Cc1ccc(NC(=O)c2nnn(CC(=O)Nc3cccc(C)c3C)c2N)cc1C,> 25 µM (inactive)
18,Cc1oc2cc3oc(=O)c(CCC(=O)N4CC[C@@]5(O)CCCC[C@H]5C4)c(C)c3cc2c1C,> 25 µM (inactive)
19,COc1ccc(OCC(=O)N(Cc2cccc3ccccc23)c2ccccn2)cc1,> 25 µM (inactive)
20,Cc1nc(C(=O)NC2(O)C(=O)c3ccccc3C2=O)cs1,20.7 µM
21,O=C(NCc1ccco1)c1ccc(Cn2c(SCc3ccccc3)nc3ccncc32)cc1,> 25 µM (inactive)

# Source: PubChem BioAssay AID1645867 (Buhrlage Lab, Dana-Farber Cancer Institute and Novartis …, 2021)
